# Results: patent US20080125408A1, “PENEM PRODRUG” (Pfizer Inc, priority 2006, published 2008)
# Read-outs that look alike come from different tables or passages of the source.
# Key:
# [1] = Liver S9 stability and conversion efficiency to sulopenem; format: in vitro ADME, human; details: for half-life at 50 µM: human
# Method: Oral bioavailability can be predicted variously by factors including one or more of (1) GI tract stability, (2) Caco-2 permeability, (3) efficiency of conversion to sulopenem, and (4) high solubility. Accordingly, the sulopenem prodrugs of the invention were evaluated, as detailed below, for stability in human intestinal juice (HIJ), efficiency of conversion to sulopenem in human liver homogenate, whole blood conversion and solubility as measured in phosphate buffer pH 5.0. Liver S9 was prepared fresh from liver chunks stored at −70° C. for each analysis completed. Approximately 5 g of frozen liver tissue was homogenized to uniformity in 15 mL of ice cold 100 mM potassium phosphate (pH 7.4) buffer. The homogenate was then centrifuged at 9000 g for 20 minutes at 5° C. to isolate the S9 supernatant fraction. Each incubation was run at a 1:10 dilution of the S9 supernatant in 100 mM potassium phosphate (pH 7.4) buffer. Reactions (1 mL) were initiated by the addition of substrate (50 μM final) at 37° C. Stability and conversion efficiency were assessed in 1 mL incubations with heparinized whole blood at 37° C. For both S9 homogenates and whole blood incubations, aliquots (75 μL) were obtained at 0, 0.5, 1, 2, 3, 5, 10, and 20 minutes and quenched in 150 μL of 80/20 acetonitrile/100 mM ammonium acetate pH 4.5 containing an internal standard (ampicillin, 5 μg/mL). Samples were centrifuged at 3000 g for 10 minutes and the supernatants transferred to injection vials. First order degradation of the prodrug was monitored by LC/MS/MS as described below. Conversion to sulopenem was expressed as a percentage of the molar equivalent (50 μM) in a fortified sample. The results of the S9 and whole blood stability and conversion studies are shown in Table 2, where single values represent an average of two duplicate determinations.
# [2] = Human Intestinal Juice (HIJ) stability studies; format: in vitro ADME; details: pooled HIJ from 4 subjects, buffered pH 7.4, 37° C., substrate 1-300 μM
# Method: In the HIJ experiments, HIJ from 4 individual subjects (1 mL each) was pooled with 1 mL of 600 mM potassium phosphate buffer pH 7.4. Aliquots of 300 μL×6 of the buffered human intestinal juice were incubated at 37° C. following fortification of substrate at concentrations of 300, 100, 30, 10, 3, and 1 μM. Two prodrug compounds could be run at the same time. Samples of 35 μL were taken at 0, 0.5, 1, 2, 10, and 20 minutes and quenched with 70 μL of 80/20 acetonitrile/100 mM ammonium acetate pH 4.5 containing an internal standard (ampicillin, 5 μg/mL). Samples were centrifuged at 3000 g for 10 minutes and the supernatants transferred to injection vials. First order degradation of the prodrug was monitored by LC/MS/MS as described below. The percentage of prodrug remaining versus time at each concentration was fitted to a first order decay function to determine the substrate depletion rate constant or kdep. A linear-log plot of kdep versus concentration could be fitted with the following equation where: [formula] […] In Michaelis-Menton terms, intrinsic clearance CLint represents the ratio of Vmax/Km when [S] is well below the Km. Substrate units for these studies were reported in μM and intrinsic clearance (CIint) in mL/min.
# [3] = Equilibrium solubility in phosphate buffer pH 5
# [4] = Whole blood conversion efficiency to sulopenem; format: in vitro ADME; details: heparinized whole blood, 37° C.
# Method: Stability and conversion efficiency were assessed in 1 mL incubations with heparinized whole blood at 37° C. For both S9 homogenates and whole blood incubations, aliquots (75 μL) were obtained at 0, 0.5, 1, 2, 3, 5, 10, and 20 minutes and quenched in 150 μL of 80/20 acetonitrile/100 mM ammonium acetate pH 4.5 containing an internal standard (ampicillin, 5 μg/mL). Samples were centrifuged at 3000 g for 10 minutes and the supernatants transferred to injection vials. First order degradation of the prodrug was monitored by LC/MS/MS as described below. Conversion to sulopenem was expressed as a percentage of the molar equivalent (50 μM) in a fortified sample. The results of the S9 and whole blood stability and conversion studies are shown in Table 2, where single values represent an average of two duplicate determinations.
# Caco-2 cells = assay: Caco-2 permeability studies (A→B assay)
# [5] = humans, about 500 mg equivalent dose; cited from earlier work
# Alloiococcus otitidis = assay: MIC90 of sulopenem (in vitro activity); format: cell-based; details: Alloiococcus otitis
# Enterobacter cloacae = assay: MIC90 of sulopenem (in vitro activity); format: cell-based
# [6] = system: Haemophilus influenzae β-lactamase+; assay: MIC90 of sulopenem (in vitro activity); format: cell-based
# [7] = system: Moraxella catarrhalis β-lactamase+; assay: MIC90 of sulopenem (in vitro activity); format: cell-based
# [8] = system: Viridans Streptococcus group; assay: MIC90 of sulopenem (in vitro activity); format: cell-based
# Bacteroides fragilis = assay: MIC90 of sulopenem (in vitro activity); format: cell-based
# [9] = system: Streptococcus pneumoniae levofloxacin-resistant; assay: MIC90 of sulopenem (in vitro activity); format: cell-based
# [10] = system: Corynebacterium spp (not C. jeikeium); assay: MIC90 of sulopenem (in vitro activity); format: cell-based
# Salmonella/Shigella = assay: MIC90 of sulopenem (in vitro activity); format: cell-based
# Method: (§1) The in vitro activity of sulopenem (B9) (the parent acid) based on minimum inhibitory concentration (MIC) was evaluated against pathogens involved in […] community and hospital infections, as summarized in Table 1.
# [11] = system: Streptococcus agalactiae (Group B); assay: MIC90 of sulopenem (in vitro activity); format: cell-based
# Method: as §1
# Listeria monocytogenes = assay: MIC90 of sulopenem (in vitro activity); format: cell-based
# Method: as §1
# [12] = system: Staphylococcus aureus oxacillin-S; assay: MIC90 of sulopenem (in vitro activity); format: cell-based
# Method: as §1
# Prevotella spp = assay: MIC90 of sulopenem (in vitro activity); format: cell-based
# Method: as §1
# Klebsiella oxytoca = assay: MIC90 of sulopenem (in vitro activity); format: cell-based
# Method: as §1
# Klebsiella pneumoniae = assay: MIC90 of sulopenem (in vitro activity); format: cell-based
# Method: as §1
# [13] = system: Streptococcus pneumoniae penicillin-resistant; assay: MIC90 of sulopenem (in vitro activity); format: cell-based
# Citrobacter diversus = assay: MIC90 of sulopenem (in vitro activity); format: cell-based; details: Citrobacter koseri
# [14] = system: Streptococcus pneumoniae penicillin-susceptible; assay: MIC90 of sulopenem (in vitro activity); format: cell-based
# [15] = system: Moraxella catarrhalis β-lactamase−; assay: MIC90 of sulopenem (in vitro activity); format: cell-based
# Citrobacter freundii = assay: MIC90 of sulopenem (in vitro activity); format: cell-based
# Proteus mirabilis = assay: MIC90 of sulopenem (in vitro activity); format: cell-based
# [16] = system: Klebsiella pneumoniae ESBL+; assay: MIC90 of sulopenem (in vitro activity); format: cell-based
# Enterobacter aerogenes = assay: MIC90 of sulopenem (in vitro activity); format: cell-based; details: Klebsiella aerogenes
# Neisseria meningitides = assay: MIC90 of sulopenem (in vitro activity); format: cell-based
# Escherichia coli = assay: MIC90 of sulopenem (in vitro activity); format: cell-based
# [17] = system: Pseudomonas aeruginosa, Acinetobacter spp., Stenotrophomonas maltophilia, multi-resistant enterococci and methicillin-resistant staphylococci; assay: Antibacterial spectrum: pathogens against which there is no activity; format: cell-based
# [18] = system: Staphylococcus saprophyticus; assay: MIC90 of sulopenem (in vitro activity); format: cell-based
# [19] = system: Streptococcus pyogenes (Group A); assay: MIC90 of sulopenem (in vitro activity); format: cell-based
# Clostridium perfringens = assay: microbe, parasite or virus in culture; format: cell-based
# [20] = system: Haemophilus influenzae β-lactamase−; assay: MIC90 of sulopenem (in vitro activity); format: cell-based
# [21] = system: Streptococcus bovis (Group D); assay: MIC90 of sulopenem (in vitro activity); format: cell-based; details: Streptococcus equinus
# Legionella pneumophila = assay: microbe, parasite or virus in culture; format: cell-based
# [22] = in vivo; cited from earlier work
# Morganella morganii = assay: MIC90 of sulopenem (in vitro activity); format: cell-based
# [23] = system: Streptococcus pneumonia penicillin-intermediate; assay: MIC90 of sulopenem (in vitro activity); format: cell-based; details: Streptococcus pneumoniae
# [24] = prodrug degradation, liver S9 1:10, 50 μM, pH 7.4, 37° C.
# [25] = human, pooled human intestinal juice (HIJ)
# [26] = phosphate buffer, pH 5, aqueous buffer, thermodynamic from solid
smiles,measurement,setting,value
"CCc1oc(=O)oc1COC(=O)C1=C(S[C@H]2CC[S@@+]([O-])C2)S[C@@H]2[C@@H]([C@@H](C)O)C(=O)N12 [Compound 1, (5-ethyl-2-oxo-1,3-dioxol-4-yl)methyl (5R,6S)-6-[(1R)-1-hydroxyethyl]-7-oxo-3-[[(1R,3S)-tetrahydro-1-oxido-3-thienyl]thio]-4-thia-1-azabicyclo[3.2.0]hept-2-ene-2-carboxylate]",half-life at 50 µM,[1]; [24],3.11 min
same,Km,[2]; [25],120 µM
same,HIJ CLint,[2],0.14 mL/min
same,solubility,[3]; [26],1200 µg/mL
"CCCc1oc(=O)oc1COC(=O)C1=C(S[C@H]2CC[S@@+]([O-])C2)S[C@@H]2[C@@H]([C@@H](C)O)C(=O)N12 [Compound 2, (5-propyl-2-oxo-1,3-dioxol-4-yl)methyl (5R,6S)-6-[(1R)-1-hydroxyethyl]-7-oxo-3-[[(1R,3S)-tetrahydro-1-oxido-3-thienyl]thio]-4-thia-1-azabicyclo[3.2.0]hept-2-ene-2-carboxylate]",half-life at 50 µM,[1]; [24],3.62 min
same,Km,[2]; [25],22 µM
same,HIJ CLint,[2],0.16 mL/min
same,solubility,[3]; [26],507 µg/mL
"CCCCc1oc(=O)oc1COC(=O)C1=C(S[C@H]2CC[S@@+]([O-])C2)S[C@@H]2[C@@H]([C@@H](C)O)C(=O)N12 [Compound 3, (5-(3-methylpropyl)-2-oxo-1,3-dioxol-4-yl)methyl (5R,6S)-6-[(1R)-1-hydroxyethyl]-7-oxo-3-[[(1R,3S)-tetrahydro-1-oxido-3-thienyl]thio]-4-thia-1-azabicyclo[3.2.0]hept-2-ene-2-carboxylate]",Whole Blood Conv,[4],84%
same,S9 Conv,"[1]; conversion to sulopenem, % of molar equivalent (50 μM), liver S9 1:10, pH 7.4, 37° C.",67%
same,S9 Half-life,[1]; [24],6.09 min
same,Caco-2 Permeability,"Caco-2 cells; Papp A→B, 100 μM prodrug, apical pH 6.5 / basolateral pH 7.4",5.02 ×10⁻⁶ cm/s
same,increase in Caco-2 permeability compared to C1,Caco-2 cells; relative to comparative compound C1,~10 fold
same,HIJ CLint,[2],0.16 mL/min
same,Km,[2],41 µM
same,solubility,"[3]; equilibrium, 25 mM phosphate buffer (pH 5), ambient temperature, up to 48 hours",809 µg/mL
"Cc1oc(=O)oc1COC(=O)C1=C(S[C@H]2CC[S@@+]([O-])C2)S[C@@H]2[C@@H]([C@@H](C)O)C(=O)N12 [Compound C1, (5-Methyl-2-oxo-1,3-dioxol-4-yl)methyl (5R,6S)-6-[(1R)-1-hydroxyethyl]-7-oxo-3-[[(1R,3S)-tetrahydro-1-oxido-3-thienyl]thio]-4-thia-1-azabicyclo[3.2.0]hept-2-ene-2-carboxylate]",half-life at 50 µM,[1]; [24],2.1 min
same,Km,[2]; [25],172 µM
same,HIJ CLint,[2],0.13 mL/min
same,solubility,[3]; [26],453 µg/mL
CC(O)C1C(=O)N2C(C(=O)OCOC(=O)C(C)(C)C)=C(SC3CC[S+]([O-])C3)SC12 (centres unmarked) [POM ester],oral bioavailability,[5],less than optimal oral bioavailability
"C[C@@H](O)[C@H]1C(=O)N2C(C(=O)O)=C(S[C@H]3CC[S@@+]([O-])C3)S[C@H]12 [Sulopenem, (5R,6S)-6-[(1R)-1-hydroxyethyl]-7-oxo-3-[(1R,3S)-tetrahydro-1-oxido-3-thienylthio]-4-thia-1-azabicyclo[3.2.0]hept-2-ene-2-carboxylic acid]",MIC90,Alloiococcus otitidis,1 µg/mL
same,MIC90,Enterobacter cloacae,1 µg/mL
same,MIC90,[6],0.5 µg/mL
same,MIC90,[7],0.125 µg/mL
same,MIC90,[8],0.25 µg/mL
same,MIC90,Bacteroides fragilis,0.5 µg/mL
same,MIC90,[9],0.5 µg/mL
same,MIC90,[10],2 µg/mL
same,MIC90,Salmonella/Shigella,0.125 µg/mL
same,MIC90,[11],0.125 µg/mL
same,MIC90,Listeria monocytogenes,0.125 µg/mL
same,MIC90,[12],0.125 µg/mL
same,MIC90,Prevotella spp,0.125 µg/mL
same,MIC90,Klebsiella oxytoca,0.125 µg/mL
same,MIC90,Klebsiella pneumoniae,0.125 µg/mL
same,MIC90,[13],1 µg/mL
same,MIC90,Citrobacter diversus,0.06 µg/mL
same,MIC90,[14],0.03 µg/mL
same,MIC90,[15],0.03 µg/mL
same,MIC90,Citrobacter freundii,0.25 µg/mL
same,MIC90,Proteus mirabilis,0.5 µg/mL
same,MIC90,[16],0.25 µg/mL
same,MIC90,Enterobacter aerogenes,0.5 µg/mL
same,MIC90,Neisseria meningitides,0.06 µg/mL
same,MIC90,Escherichia coli,0.06 µg/mL
same,antibacterial activity,[17],not active
same,MIC90,[18],0.5 µg/mL
same,MIC90,[19],0.03 µg/mL
same,MIC90,Clostridium perfringens,0.06 µg/mL
same,MIC90,[20],0.25 µg/mL
same,MIC90,[21],0.06 µg/mL
same,MIC90,Legionella pneumophila,0.06 µg/mL
same,oral bioavailability,[22],not appreciably orally bioavailable
same,MIC90,Morganella morganii,2 µg/mL
same,MIC90,[23],0.25 µg/mL
